According to patent US20220298107A1, “SUBSTITUTED UREA DIHYDROOROTATE DEHYDROGENASE INHIBITORS” (Janssen Biotech, Inc., priority 2019, published 2022):
pEC50: −log10 of the molar value.

Legend:
human DHODH = human DHODH (Homo sapiens, UniProt Q02127); assay: biochemical
Experimental: To detect DHODH enzyme activities, dichloroindophenol (DCIP) is added as the final electron acceptor in the assay. DCIP can accept electrons from the reduced coenzyme Q generated in the assay, or from dihydroorotate (DHO) via flavin mononucleotide (FMN) by binding presumably to the ubiquinone pocket. […] The assay buffer contained […], pH 7.5, 150 mM NaCl, 0.5 mM EDTA, and 0.1% Triton X-100 in MilliQ water. Substrate consisting of 20 mM DHO, 5 mM CoQ6, and 1 mM DCIP in assay buffer, initiates the reaction. […] Absorbance measurements were obtained using the BMG Phera Star plate-reading spectrophotomer. Purified human DHODH was purchased from Proteros (cat. No. PR-0044). Chemicals were purchased from Sigma-Aldrich, Teknova, and Avanti Polar Lipids. Liquid handling was performed using Labcyte Echo and Formulatrix Tempest.

MOLM-13 cells = assay: MOLM-13 Cellular Assay; format: cell-based; conditions: Homo sapiens, MOLM-13, 72 h, read-out: MOLM-13 Cellular Assay EC50 (nM)
Experimental: MOLM-13 cells were obtained from DSMZ and were maintained in RPMI 1640+Glutamax+25 mM HEPES (Invitrogen, catalog number 72400) supplemented with 10% heat inactivated fetal bovine serum (FBS; Invitrogen, catalog number 16140). The day prior to assay set-up, cells were pelleted, resuspended in fresh media, counted, and cells were plated at 0.4×10^6 cell/mL in a T150 flask. On the day of the assay, cells were pelleted, resuspend in fresh media, counted and seeded at 5,000 cells/well in white opaque 96-well tissue culture treated microplates (Perkin Elmer, catalog number 6005680). Cells were exposed to different concentrations of test compounds at 37° C., 5% CO2 for 72 hours immediately after seeding. Cell viability was acquired on a Perkin Elmer Envision 2104 multilabel reader using the CellTiter-Glo assay (Promega) according to the manufacturer's instructions.

human DHODH, sequence (Q02127 whole entry): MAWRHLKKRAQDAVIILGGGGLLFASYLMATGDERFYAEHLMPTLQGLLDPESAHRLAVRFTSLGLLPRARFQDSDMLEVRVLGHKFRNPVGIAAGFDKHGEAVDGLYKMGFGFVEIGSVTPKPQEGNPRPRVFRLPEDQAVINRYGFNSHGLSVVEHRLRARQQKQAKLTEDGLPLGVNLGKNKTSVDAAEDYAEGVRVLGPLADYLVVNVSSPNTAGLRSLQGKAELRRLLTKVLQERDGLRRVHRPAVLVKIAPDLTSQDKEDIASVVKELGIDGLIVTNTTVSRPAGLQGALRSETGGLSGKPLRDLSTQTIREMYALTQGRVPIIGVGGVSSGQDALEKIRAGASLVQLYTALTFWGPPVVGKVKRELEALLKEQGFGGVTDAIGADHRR

Row | pEC50 (human DHODH) | EC50 (MOLM-13 cells) [nM] | SMILES
1 | 7.70 | 12 | C[C@H](Oc1cc(NC(=O)N2CCCCC2)c(F)cc1C(=O)Nc1c(F)cccc1Cl)C(F)(F)F [Example 2, (S)-N-(4-((2-Chloro-6-fluorophenyl)carbamoyl)-2-fluoro-5-((1,1,1-trifluoropropan-2-yl)oxy)phenyl)piperidine-1-carboxamide]
2 |  | 1.2 | CCN(CCO)C(=O)Nc1cc(O[C@@H](C)C(F)(F)F)c(C(=O)Nc2c(F)cccc2Cl)cc1F [Example 3, (S)-N-(2-Chloro-6-fluorophenyl)-4-(3-ethyl-3-(2-hydroxyethyl)ureido)-5-fluoro-2-((1,1,1-trifluoropropan-2-yl)oxy)benzamide]
3 | 8.14 | 2.1 | CCN(C(=O)Nc1cc(O[C@@H](C)C(F)(F)F)c(C(=O)Nc2c(F)cccc2Cl)cc1F)C(C)C [Example 4, (S)-N-(2-Chloro-6-fluorophenyl)-4-(3-ethyl-3-isopropylureido)-5-fluoro-2-((1,1,1-trifluoropropan-2-yl)oxy)benzamide]
4 | 8.44 | 1.2 | CCN(CCOC)C(=O)Nc1cc(O[C@@H](C)C(F)(F)F)c(C(=O)Nc2c(F)cccc2Cl)cc1F [Example 6, (S)-N-(2-Chloro-6-fluorophenyl)-4-(3-ethyl-3-(2-methoxyethyl)ureido)-5-fluoro-2-((1,1,1-trifluoropropan-2-yl)oxy)benzamide]
5 |  | 1.9 | CCN(CC(F)F)C(=O)Nc1cc(O[C@@H](C)C(F)(F)F)c(C(=O)Nc2c(F)cccc2Cl)cc1F [Example 7, (S)-N-(2-chloro-6-fluorophenyl)-4-(3-(2,2-difluoroethyl)-3-ethylureido)-5-fluoro-2-((1,1,1-trifluoropropan-2-yl)oxy)benzamide]
6 | 6.31 | 89 | CC(C)NC(=O)Nc1cc(O[C@@H](C)C(F)(F)F)c(C(=O)Nc2c(F)cccc2Cl)cc1F [Example 9, (S)-N-(2-Chloro-6-fluorophenyl)-5-fluoro-4-(3-isopropylureido)-2-((1,1,1-trifluoropropan-2-yl)oxy)benzamide]
7 | 6.02 | 220 | C[C@H](Oc1cc(NC(=O)N2CCC(CO)C2)c(F)cc1C(=O)Nc1c(F)cccc1Cl)C(F)(F)F (stereo partly drawn) [Example 13, N-(4-((2-Chloro-6-fluorophenyl)carbamoyl)-2-fluoro-5-(((S)-1,1,1-trifluoropropan-2-yl)oxy)phenyl)-3-(hydroxymethyl)pyrrolidine-1-carboxamide]
8 | 8.10 |  | CCCN(C)C(=O)Nc1cc(O[C@@H](C)C(F)(F)F)c(C(=O)Nc2c(F)cccc2Cl)cc1F [Example 14, (S)-N-(2-Chloro-6-fluorophenyl)-5-fluoro-4-(3-methyl-3-propylureido)-2-((1,1,1-trifluoropropan-2-yl)oxy)benzamide]
9 | 7.70 |  | CCCN(CC)C(=O)Nc1cc(O[C@@H](C)C(F)(F)F)c(C(=O)Nc2c(F)cccc2Cl)cc1F [Example 15, (S)-N-(2-Chloro-6-fluorophenyl)-4-(3-ethyl-3-propylureido)-5-fluoro-2-((1,1,1-trifluoropropan-2-yl)oxy)benzamide]
10 | 8.33 |  | C[C@H](Oc1cc(NC(=O)N(C)CCF)c(F)cc1C(=O)Nc1c(F)cccc1Cl)C(F)(F)F [Example 16, (S)-N-(2-chloro-6-fluorophenyl)-5-fluoro-4-(3-(2-fluoroethyl)-3-methylureido)-2-((1,1,1-trifluoropropan-2-yl)oxy)benzamide]
11 | 6.70 |  | C[C@H](Oc1cc(NC(=O)N(C)CCC#N)c(F)cc1C(=O)Nc1c(F)cccc1Cl)C(F)(F)F [Example 17, (S)-N-(2-Chloro-6-fluorophenyl)-4-(3-(2-cyanoethyl)-3-methylureido)-5-fluoro-2-((1,1,1-trifluoropropan-2-yl)oxy)benzamide]
12 | 8.59 | 1.5 | C[C@H](Oc1cc(NC(=O)N(C)CCO)c(F)cc1C(=O)Nc1c(F)cccc1Cl)C(F)(F)F [Example 18, (S)-N-(2-Chloro-6-fluorophenyl)-5-fluoro-4-(3-(2-hydroxyethyl)-3-methylureido)-2-((1,1,1-trifluoropropan-2-yl)oxy)benzamide]
13 | 8.55 |  | C[C@H](Oc1cc(NC(=O)N2CCC2)c(F)cc1C(=O)Nc1c(F)cccc1Cl)C(F)(F)F [Example 20, (S)-N-(4-((2-Chloro-6-fluorophenyl)carbamoyl)-2-fluoro-5-((1,1,1-trifluoropropan-2-yl)oxy)phenyl)azetidine-1-carboxamide]
14 | 8.14 |  | C[C@H](Oc1cc(NC(=O)N2CC(F)C2)c(F)cc1C(=O)Nc1c(F)cccc1Cl)C(F)(F)F [Example 22, (S)-N-(4-((2-Chloro-6-fluorophenyl)carbamoyl)-2-fluoro-5-((1,1,1-trifluoropropan-2-yl)oxy)phenyl)-3-fluoroazetidine-1-carboxamide]
15 | 6.27 | 270 | C[C@H](Oc1cc(NC(=O)N2CC(O)C2)c(F)cc1C(=O)Nc1c(F)cccc1Cl)C(F)(F)F [Example 23, (S)-N-(4-((2-Chloro-6-fluorophenyl)carbamoyl)-2-fluoro-5-((1,1,1-trifluoropropan-2-yl)oxy)phenyl)-3-hydroxyazetidine-1-carboxamide]
16 | 6.68 | 110 | C[C@H](Oc1cc(NC(=O)N2CC(CF)C2)c(F)cc1C(=O)Nc1c(F)cccc1Cl)C(F)(F)F [Example 25, (S)-N-(4-((2-Chloro-6-fluorophenyl)carbamoyl)-2-fluoro-5-((1,1,1-trifluoropropan-2-yl)oxy)phenyl)-3-(fluoromethyl)azetidine-1-carboxamide]
17 | 5.10 | 170 | C[C@H](Oc1cc(NC(=O)N(C)CC#N)c(F)cc1C(=O)Nc1c(F)cccc1Cl)C(F)(F)F [Example 26, (S)-N-(2-Chloro-6-fluorophenyl)-4-(3-(cyanomethyl)-3-methylureido)-5-fluoro-2-((1,1,1-trifluoropropan-2-yl)oxy)benzamide]
18 | 7.07 | 40 | COC1CCN(C(=O)Nc2cc(O[C@@H](C)C(F)(F)F)c(C(=O)Nc3c(F)cccc3Cl)cc2F)C1 (stereo partly drawn) [Example 29, N-(4-((2-Chloro-6-fluorophenyl)carbamoyl)-2-fluoro-5-(((S)-1,1,1-trifluoropropan-2-yl)oxy)phenyl)-3-methoxypyrrolidine-1-carboxamide]
19 | 6.92 | 57 | C[C@H](Oc1cc(NC(=O)N2CCC(O)C2)c(F)cc1C(=O)Nc1c(F)cccc1Cl)C(F)(F)F (stereo partly drawn) [Example 30, N-(4-((2-Chloro-6-fluorophenyl)carbamoyl)-2-fluoro-5-(((S)-1,1,1-trifluoropropan-2-yl)oxy)phenyl)-3-hydroxypyrrolidine-1-carboxamide]
20 | 7.89 | 5.8 | C[C@H](Oc1cc(NC(=O)N2CCC(F)C2)c(F)cc1C(=O)Nc1c(F)cccc1Cl)C(F)(F)F (stereo partly drawn) [Example 32, N-(4-((2-Chloro-6-fluorophenyl)carbamoyl)-2-fluoro-5-(((S)-1,1,1-trifluoropropan-2-yl)oxy)phenyl)-3-fluoropyrrolidine-1-carboxamide]
21 | 8.59 | 6.6 | Cc1ccnc(Cl)c1NC(=O)c1cc(F)c(NC(=O)N2CCC[C@@H]2CO)cc1O[C@@H](C)C(F)(F)F [Example 36, (R)-N-(4-((2-Chloro-4-methylpyridin-3-yl)carbamoyl)-2-fluoro-5-(((S)-1,1,1-trifluoropropan-2-yl)oxy)phenyl)-2-(hydroxymethyl)pyrrolidine-1-carboxamide]
22 | 9.15 | 11 | Cc1n[nH]c(Cl)c1NC(=O)c1cc(F)c(NC(=O)N2CCC[C@@H]2CO)cc1O[C@@H](C)C(F)(F)F [Example 37, (R)-N-(4-((5-Chloro-3-methyl-1H-pyrazol-4-yl)carbamoyl)-2-fluoro-5-(((S)-1,1,1-trifluoropropan-2-yl)oxy)phenyl)-2-(hydroxymethyl)pyrrolidine-1-carboxamide]
23 | 9.77 | 16 | COc1nccc(C)c1NC(=O)c1cc(F)c(NC(=O)N2CCC[C@@H]2CO)cc1O[C@@H](C)C(F)(F)F [Example 38, (R)-N-(2-Fluoro-4-((2-methoxy-4-methylpyridin-3-yl)carbamoyl)-5-(((S)-1,1,1-trifluoropropan-2-yl)oxy)phenyl)-2-(hydroxymethyl)pyrrolidine-1-carboxamide]
24 | 8.59 | 3.5 | COc1ncc(C)c(NC(=O)c2cc(F)c(NC(=O)N3CCC[C@@H]3CO)cc2O[C@@H](C)C(F)(F)F)c1Cl [Example 39, (R)-N-(4-((3-Chloro-2-methoxy-5-methylpyridin-4-yl)carbamoyl)-2-fluoro-5-(((S)-1,1,1-trifluoropropan-2-yl)oxy)phenyl)-2-(hydroxymethyl)pyrrolidine-1-carboxamide]
25 | 8.44 | 25 | COc1ncc(C)c(NC(=O)c2cc(F)c(NC(=O)N3CCC[C@@H]3CO)cc2O[C@@H](C)C(F)(F)F)c1C [Example 40, (R)-N-(2-Fluoro-4-((2-methoxy-3,5-dimethylpyridin-4-yl)carbamoyl)-5-(((S)-1,1,1-trifluoropropan-2-yl)oxy)phenyl)-2-(hydroxymethyl)pyrrolidine-1-carboxamide]
